# Experimental data reported in patent US20050014149A1, “Assay for inhibitors of translocases” (priority 2001, published 2005).
# Target: SV40 large T antigen (Simian virus 40, UniProt P03070)
# Test: Homogeneous helicase assay (streptavidin displacement from biotin-labelled oligonucleotide, biotin-4-fluorescein quenching)
# Format: biochemical
# Conditions: inhibitor added to the helicase assay; fluorescence ex 485 nm / em 535 nm; FIG. 4
# Source text: The helicase substrate takes the form of an oligonucleotide of length appropriate to the helicase under test that is biotinylated at one end, appropriate to the directionality of the helicase under test. In this example, a single-strand 60-mer with the sequence […] TGCATGATG was labelled with biotin at the 5′-terminus (obtained from Eurogentec, Belgium) so that it could be used as a substrate for the helicase function of the SV40 large T antigen which is a 3′-5′ helicase.
# Equal volumes of streptavidin and biotin-labelled oligonucleotide dissolved in reaction buffer (see below) were mixed in such a way that there was at least a four-fold molar excess of oligonucleotide over streptavidin. This is to ensure the saturation of all biotin-binding sites on the streptavidin molecule (4 biotin-binding sites per molecule streptavidin). This mixture was incubated for at least 15 minutes before being used for the assay.
# An aliquot of the oligonucleotide/streptavidin complex (oligo/SA) was then mixed with SV40 large T antigen and biotin-4-fluorescein in a suitable buffer, in this case 50 mM Tris-HCl pH 7.5, containing 3 mM MgCl2, 5 mM dithiothreitol and 100 μg/ml bovine serum albumin and pipetted into 384-well microplates.
# The enzyme reaction was started by adding an appropriate amount of adenosine triphosphate and incubating the plate at 37° C. […]
# SV40 large T antigen, sequence (P03070 whole entry): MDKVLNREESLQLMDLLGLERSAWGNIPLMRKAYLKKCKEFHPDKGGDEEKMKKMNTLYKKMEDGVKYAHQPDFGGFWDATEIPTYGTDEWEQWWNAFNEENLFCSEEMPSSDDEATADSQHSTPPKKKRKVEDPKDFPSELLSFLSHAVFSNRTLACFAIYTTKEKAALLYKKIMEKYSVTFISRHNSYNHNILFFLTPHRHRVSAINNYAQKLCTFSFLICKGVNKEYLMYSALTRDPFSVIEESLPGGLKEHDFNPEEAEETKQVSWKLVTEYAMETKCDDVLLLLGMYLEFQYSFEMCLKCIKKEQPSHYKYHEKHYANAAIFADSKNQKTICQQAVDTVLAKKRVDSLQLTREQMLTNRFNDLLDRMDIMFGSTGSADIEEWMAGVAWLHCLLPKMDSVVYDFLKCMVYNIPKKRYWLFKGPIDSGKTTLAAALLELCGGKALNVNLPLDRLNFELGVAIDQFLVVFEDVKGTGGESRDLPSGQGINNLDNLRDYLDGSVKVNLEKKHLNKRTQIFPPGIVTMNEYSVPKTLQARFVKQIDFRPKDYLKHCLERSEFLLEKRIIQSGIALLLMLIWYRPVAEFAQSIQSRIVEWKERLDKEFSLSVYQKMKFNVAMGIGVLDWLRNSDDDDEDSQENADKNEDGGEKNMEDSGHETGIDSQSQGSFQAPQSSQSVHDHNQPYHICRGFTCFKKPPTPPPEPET
compound,measurement,value
Cn1cc(NC(=O)c2cc(NC(=O)c3cc(NC=O)cn3C)cn2C)cc1C(=O)NCCC(=N)N [Distamycin A],helicase activity (displacement of the streptavidin from the biotin-labelled substrate),dose-dependently decrease helicase activity
